Values of other authors as cited in patent US20230301919A1, “FREEZE DRIED LOW HYGROSCOPICITY ACTIVE POWDER COMPOSITIONS” (PHILIP MORRIS PRODUCTS S.A., priority 2020, published 2023).

Details: at 25° C.

solubility: 69 g/100 ml water
SMILES: OC[C@H]1O[C@H](O[C@H]2O[C@H](CO)[C@@H](O)[C@H](O)[C@H]2O)[C@H](O)[C@@H](O)[C@@H]1O [trehalose]
